Results from patent publication US5220042A, “1,4-benzoquinone derivatives and benzene derivatives, and process for preparing the same” (priority 1984, dated 1993).
Where two headings read alike, the source gives them in different places.

Test system: SRS-A release from lung fragments
Test: Inhibition of SRS-A release from sensitized guinea pig lung fragments
Assay type: cell-based, guinea pig (Hartley strain)
Settings: Cavia porcellus
Experimental: Inhibitory activities on the release of SRS-A and histamine of the present compounds were determined.
A male guinea pig (Hartley strain) (body weight: about 300 g) was sensitized by a method according to P. Anderson: "Int. Archs. Allergey appln. Immunol., Vol. 64, pages 249-258 (1981). Thus, 30 mg/kg of cyclophosphamide was intraperitoneally administered to the guinea pig, and 2 days after 1 microgram of ovalbumin (manufactured by Sigma Chemical Co., St. Louis, Mo. U. S. A.) together with 10 mg of aluminium hydroxide gel were intraperitoneally administered so as to have the animal sesitized.
50 Days after the sesitization, the animal was killed by exsanguination, and the lung was isolated from the animal and was perfused with 20 ml of Tyrode's solution, then immersed in an ice-cooled Tyrode's solution. The parenchyma of the lung was cut by using McIlwain-type tissue chopper to make it into fragments of lung having 2 mm square and the fragments were washed with Tyrode's solution. 400 Milligrams of sectiles of lung were suspended in 3.6 ml of Tyrode's solution, and this suspension was preincubated at 37° C. for 5 minutes, then 4 microliters of dimethyl sulfoxide solution of the test compound, in the case of control 4 microliters of dimethyl sulfoxide alone was added to the suspension. 5 Minutes after, 0.4 ml of 100 micrograms/ml of ovalbumin solution added so as to release SRS-A for 10 minutes. The suspension was ice-cooled and filtered through gauze, the filtrate was centrifuged at 2,000 rpm for 10 minutes and the supernatant was collected. The supernatant was stored in freezed state at -80° C. until bio-assay was conducted.
Amounts of SRS-A and histamine contained in the supernatant were determined by bio-assay using ileum of guinea pig.
A piece of the ileum (2-3 cm of length) positioned from 15-25 cm from the opening portion of ileocecum was isolated from a male guinea pig (Hartley strain) (body weight: 400-600 g) which was fasted for 24 hours. The piece of ileum was hanged vertically in a Magnus tube which was filled with 10 ml of Tyrode's solution containing 10^-7 M of atropine sulfate under air stream conditions. The isotonic contraction of the piece of the ileum was measured at 0.5 g of load by using an isotonic transducer "TD-112S" (manufactured by Nihon Koden Co., Ltd.). The measurements were carried out after the reaction to histamine of the piece of ileum was kept constant. Bioassay of histamine was measured by using the value of contraction shown in 30 seconds after the addition of the supernatant. Bioassay of on SRS-A was measured by using the value of contraction shown at 2 minutes after the addition of the supernatant in the presence of 10^-6 M of pyrilamine (manufactured by Sigma Chemical Co.), and compared with the standard curve of crude SRS-A released from the fragments of the lung.

[1] = Table 2, dose 3 μM, read-out: Inhibition ratio (%) SRS-A
[2] = Table 2, dose 30 μM, read-out: Inhibition ratio (%) SRS-A
[3] = Table 2B, 3 μM, read-out: Inhibitory activities on SRS-A (%)
[4] = Table 2B, 30 μM, read-out: Inhibitory activities on SRS-A (%)
[5] = Table 2B, read-out: Inhibitory activities on SRS-A (%)

| SMILES | inhibition at 3 µM [1] [%] | inhibition at 30 µM [2] [%] | inhibition at 3 µM [3] [%] | inhibition at 30 µM [4] [%] | inhibition at 1 µM [5] [%] | inhibition at 10 µM [5] [%] |
| --- | --- | --- | --- | --- | --- | --- |
| COC1=CC(=O)C(OC)=C(CCCCCCCC#CCCCCCCCC2=C(OC)C(=O)C=C(OC)C2=O)C1=O [Test Compound No. 20, 2,2'-(8-Hexadecynylene)bis(3,6-dimethoxy-1,4-benzoquinone)] | 14.5 | 24.1 | 14.5 | 24.1 |  |  |
| COC1=CC(=O)C(OC)=C(CCCCCCCCCC#CCCCCCCCCCC2=C(OC)C(=O)C=C(OC)C2=O)C1=O [Test Compound No. 21, 2,2'-(10-Eicosynylene)bis(3,6-dimethoxy-1,4-benzoquinone)] | -21.7 | 16.6 | -21.7 | 16.6 |  |  |
| COC1=CC(=O)C(OC)=C(CCC2=C(OC)C(=O)C=C(OC)C2=O)C1=O [Test Compound No. 23, 2,2'-Ethylenebis(3,6-dimethoxy-1,4-benzoquinone)] |  |  |  | 28.6 |  |  |
| COC1=CC(=O)C(OC)=C(CCCCC2=C(OC)C(=O)C=C(OC)C2=O)C1=O [Test Compound No. 24, 2,2'-Tetramethylenebis(3,6-dimethoxy-1,4-benzoquinone)] |  |  |  |  | 36.1 | 67.7 |
| COC1=CC(=O)C(OC)=C(CCCOCCC2=C(OC)C(=O)C=C(OC)C2=O)C1=O [Test Compound No. 25, 2-(3,6-Dimethoxy-1,4-benzoquinon-2-yl)ethyl 3-(3,6-dimethoxy-1,4-benzoquinon-2-yl)propyl ether] |  |  |  |  | 52.4 | 94.4 |
| COC1=CC(=O)C(OC)=C(COCC2=C(OC)C(=O)C=C(OC)C2=O)C1=O [Test Compound No. 26, Bis[(3,6-Dimethoxy-1,4-benzoquinon-2-yl)methyl] ether] |  |  | 10.9 | 39.8 |  |  |
| COC1=CC(=O)C(OC)=C(CCCC2=C(OC)C(=O)C=C(OC)C2=O)C1=O [Test Compound No. 27, 2,2'-Trimethylenebis(3,6-dimethoxy-1,4-benzoquinone)] |  |  |  |  | 14.9 | 83.3 |
| COC1=CC(=O)C(OC)=C(CCCSSCCCC2=C(OC)C(=O)C=C(OC)C2=O)C1=O [Test Compound No. 28, Bis[(3,6-dimethoxy-1,4-benzoquinon-2-yl)propyl] disulfide] |  |  |  |  | 30.5 | 85.2 |
| COC1=CC(=O)C(OC)=C(CCCCCSCCCCCC2=C(OC)C(=O)C=C(OC)C2=O)C1=O [Test Compound No. 29, Bis[(3,6-dimethoxy-1,4-benzoquinon-2-yl)-pentyl]sulfide] |  |  |  |  | 19.6 | 60.5 |
| CCCCC#CCCCC1=C(OC)C(=O)C=C(OC)C1=O [Test Compound No. 35, 2,5-Dimethoxy-3-(4-nonynyl)-1,4-benzoquinone] |  |  | 64.9 | 96 |  |  |
| COCOc1cc(OC)c(OCOC)c(CCCCCc2c(OC)c(OCOC)cc(OC)c2OCOC)c1OC [Test Compound No. 36, 1,5-bis[1,4-Dimethoxy-2,5-bis(methoxymethoxy)-phen-3-yl]pentane] |  |  | 12.1 | 24.5 |  |  |
| COc1cc(OC(C)=O)c(OC)c(CCCCCc2c(OC)c(OC(C)=O)cc(OC)c2OC(C)=O)c1OC(C)=O [Test Compound No. 37, 1,5-bis[1,4-Diacetoxy-2,5-(dimethoxy)phen-3-yl]-pentane] |  |  | 69.2 | 90 |  |  |
| CCCCC1=C(OC)C(=O)C(CCCCCC2=C(OC)C(=O)C=C(OC)C2=O)=C(OC)C1=O [Test Compound No. 38, 3-Butyl-2,5-dimethoxy-6-[5-(2,5-dimethoxy-1,4-benzoquinon-3-yl)pentyl]-1,4-benzoquinone] |  |  |  |  | 25.1 | 38.2 |
| CCCCC#CCCCC1=C(OC)C(=O)C(CCCCCC2=C(OC)C(=O)C=C(OC)C2=O)=C(OC)C1=O [Test Compound No. 39, 2,5 Dimethoxy-3-(4-nonynyl)-6-[5-(2,5-dimethoxy-1,4-benzoquinon-3-yl)pentyl]-1,4-benzoquinone] |  |  |  |  | 0 | 11 |
| COC1=CC(=O)C(OC)=C(CCCCCC2=C(OC)C(=O)C(CCO)=C(OC)C2=O)C1=O [Test Compound No. 40, 2,5-Dimethoxy-3-(2-hydroxyethyl)-6-[5-(2,5-dimethoxy-1,4-benzoquinon-3-yl)pentyl]-1,4-benzoquinone] |  |  |  |  | 38.2 | 91.7 |
| COC1=CC(=O)C(OC)=C(CCCCCC2=C(OC)C(=O)C(CCCCCC3=C(OC)C(=O)C=C(OC)C3=O)=C(OC)C2=O)C1=O [Test Compound No. 41, 2,5-Dimethoxy-3,6-bis[5-(2,5-dimethoxy-1,4-benzoquinon-3-yl)-entyl]-1,4-benzoquinone] |  |  |  |  | 4.1 | 25 |
| COC1=CC(=O)C(OC)=C(OCCCOC2=C(OC)C(=O)C=C(OC)C2=O)C1=O [Test Compound No. 42, 2,2'-Trimethylenedioxybis(3,6-dimethoxy-1,4-benzoquinone)] |  |  |  |  | 28.4 | 80 |
| COC1=CC(=O)C(OC)=C(CCCCCC2=C(OC)C(=O)C(SC)=C(OC)C2=O)C1=O [Test Compound No. 43, 1-(2,5-Dimethoxy-1,4-benzoquinon-3-yl)-5-(2,5-dimethoxy-3-methylthio-1,4-benzoquinon-6-yl)pentane] |  |  |  |  | 23.2 | 79.4 |
| CCOC(=O)C1=C(OC)C(=O)C(CCCCCC2=C(OC)C(=O)C=C(OC)C2=O)=C(OC)C1=O [Test Compound No. 44, 1-(2,5-Dimethoxy-1,4-benzoquinon-3-yl)-5-(2,5-dimethoxy-3-ethoxycarbonyl-1,4-benzoquinon-6-yl)pentane] |  |  |  |  | -10.5 | 18.6 |
| COC1=C(CCCCCC2=C(OC)C(=O)C(SC)=C(OC)C2=O)C(=O)C(OC)=C(SC)C1=O [Test Compound No. 45, 2,2'-Pentamethylenebis(3,6-dimethoxy-5-methylthio-1,4-benzoquinone)] |  |  |  |  | 28.1 | 50.7 |
| CCOC(=O)C1=C(OC)C(=O)C(CCCCCC2=C(OC)C(=O)C(C(=O)OCC)=C(OC)C2=O)=C(OC)C1=O [Test Compound No. 46, 2,2'-Pentamethylenebis(3,6-dimethoxy-5-ethoxycarbonyl-1,4-benzoquinone)] |  |  |  |  | 18.2 | 16.2 |
| CCCCC1=C(OC)C(=O)C(CCCCCC2=C(OC)C(=O)C(CCO)=C(OC)C2=O)=C(OC)C1=O [Test Compound No. 47, 1-(2,5-Dimethoxy-3-butyl-1,4-benzoquinon-6-yl)-[2,5-dimethoxy-3-(2-hydroxyethyl)-1,4-benzoquinon-6-yl]pentane] |  |  |  |  | 15.8 | 47.6 |
| COC1=C(CCO)C(=O)C(OC)=C(CCCCCC2=C(OC)C(=O)C(OC)=C(OC)C2=O)C1=O [Test Compound No. 48, 1-(2,3,5-Trimethoxy-1,4-benzoquinon-6-yl)-5-[2,5-dimethoxy-3-(2-hydroxyethyl)-1,4-benzoquinon-6-yl]pentane] |  |  |  |  | 37.6 | 89.4 |
| COC1=C(CCO)C(=O)C(OC)=C(CCCCCC2=C(OC)C(=O)C(SC)=C(OC)C2=O)C1=O [Test Compound No. 49, 1-(2,5-Dimethoxy-3-methylthio-1,4-benzoquinon-6-yl)-5-[2,5-dimethoxy-3-(2-hydroxyethyl)-1,4-benzoquinon-6-yl]pentane] |  |  |  |  | -0.4 | 65.2 |
| CCOC(=O)C1=C(OC)C(=O)C(CCCCCC2=C(OC)C(=O)C(CCO)=C(OC)C2=O)=C(OC)C1=O [Test Compound No. 50, 1-(2,5-Dimethoxy-3-ethoxycarbonyl-1,4-benzoquinon-6-yl)-5-[2,5-dimethoxy-3-(2-hydroxyethyl)-1,4-benzoquinon-6-yl]pentane] |  |  |  |  | 14.8 | 41.7 |
| COC1=CC(=O)C(O)=C(CCCCCC2=C(O)C(=O)C=C(OC)C2=O)C1=O [Test Compound No. 51, 2,2'-Pentamethylenebis(3-hydroxy-6-methoxy-1,4-benzoquinone)] |  |  |  |  | 11.8 | 60.8 |
